Literature values as cited in US6646013B1, “Nutrient formulations for disease reduction” (Nutri-Logics, priority 1999, dated 2003).
Where two headings read alike, the source gives them in different places. Blank lines part the entries; values can stand above or below the molecule they belong to.

Experiments:
[1] = not given; remark: listed apart in the source
rats = details: oral doses
[2] = animal fertility studies
mice = details: oral doses
[3] = saturable absorption
[4] = not given; remark: listed apart in the source
colon carcinogenesis = details: rat colon model for carcinogenesis
[5] = circulation
colon cancer = details: patients with chronic ulcerative colitis
[6] = not given; remark: listed apart in the source
[7] = not given; remark: listed apart in the source
[8] = normal parathyroid function and vitamin D sensitivity
prostate cancer = details: vitamin E intake [37]
vitamin K activity = details: vitamin K-deficient patients
colorectal cancer = details: meta-analysis of twenty-four studies, calcium intake
[9] = not given; remark: listed apart in the source
[10] = gastrointestinal side effects (distress, bloating)

Molecule: CC(=O)N[C@@H](CS)C(=O)O [NAC, N-Acetyl-l-cysteine]
plasma half-life of free NAC ([1]; estimated): about 2 hours | time to peak plasma NAC concentration ([1]; oral administration): less than one | bioavailability of the intact NAC molecule ([1]; oral, estimated): 4-10% | time post-administration at which virtually no NAC is detected ([1]; plasma): 10 to 12 h | LD50 (rats): greater than 6000 mg/kg | dose with no adverse effects reported [2]: up to 250 mg/kg | dose with no teratogenic effects observed [2]: ≤ 2000 mg/kg | LD50 (mice): 7888 mg/kg

Molecule: O=C1O[C@H]([C@@H](O)CO)C(O)=C1O [Ascorbate, ascorbic acid]
concentration at which absorption is half-maximal [3]: about 1 mM

Molecule: COc1cc(/C=C/C(=O)CC(=O)/C=C/c2ccc(O)c(OC)c2)ccc1O [curcumin, (E,E)-1,7-Bis(4-hydroxy-3-methoxyphenyl)-1,6-heptadiene-3,5-dione]
efficacy of pure form (>98%) versus food-grade curcumin (colon carcinogenesis): equally effective

Molecule: Nc1nc2ncc(CNc3ccc(C(=O)N[C@@H](CCC(=O)O)C(=O)O)cc3)nc2c(=O)[nH]1 [folic acid, N-[**4-[**[**(2-Amino-1,4-dihydro-4-oxo-6-pteridinyl)methyl]amino]benzoyl]-L-glutamic Acid]
lower incidence of colon cancer versus no supplementation (colon cancer): 62% | dose with no adverse human effects ([6]; duration not stated): 15 mg/day | dose with no adverse human effects ([6]; for 4 months): 10 mg/day

Molecule: C=C1CC[C@H](O)C/C1=C/C=C1\CCC[C@]2(C)[C@@H]([C@H](C)CCCC(C)C)CC[C@@H]12 [vitamin D, (3β,5Z,7E)-9,10-Secocholesta-5,7,10(19)-triene-3-ol]
continuous daily ingestion causing signs of hypervitaminosis [8]: ≥ 50,000 units daily

Molecule: [Ca] [calcium]
summary relative risk of colorectal cancer (colorectal cancer): 0.89 (0.79-1.01) | fraction complexed to anionic buffers ([9]; human plasma): about 10% | fraction bound to plasma proteins ([9]; human plasma, primarily albumin): approximately 45% | fraction of filtered Ca2+ reabsorbed ([9]; kidney): approximately 98% | supplement dose above which generally not well tolerated [10]: exceeding 800 mg per day

Continued, in another order:

time to peak plasma concentrations (oral): ≤ 2 h | time to significant plasma concentrations (oral): ≤ 30 min | excreted in the urine as acyl glucuronide (urine): 5% | excreted in the urine as free salicylic acid (urine): 10% | excreted in the urine as salicylic phenolic glucuronide (urine): 10% | excreted in the urine as salicyluric acid (urine): 75%
Molecule: O=C(O)c1ccccc1O [Salicylate, salicylic acid]

dose at which symptoms of dependency were noted ([4]; adults): 200 mg daily
Molecule: Cc1ncc(CO)c(CO)c1O [vitamin B6, pyridoxine]
dose at which neurotoxicity may develop ([4]; prolonged ingestion): 200 mg per day

share of circulating vitamin B6 [5]: at least 60%
Molecule: Cc1ncc(COP(=O)(O)O)c(C=O)c1O [Pyridoxal phosphate, pyridoxal 5′ phosphate]

share of the body's stores in the liver [7]: ≤ 90%
Molecule: Cyanocobalamin [vitamin B12]

prolonged daily intake after which bleeding is a concern (vitamin K activity): > 800 IU
Molecule: Cc1c(C)c2c(c(C)c1O)CCC(C)(CCCC(C)CCCC(C)CCCC(C)C)O2 (stereo not shown) [vitamin E, 3,4-Dihydro-2,5,7,8-tetramethyl-2-(4,8,12-trimethyltridecyl)-2H-1-benzopyran-6-ol]
decrease in the incidence of prostate cancer (prostate cancer): 34%
